Measured values from patent publication US20120264231A1, “ASSAY FOR ORAI CALCIUM CHANNEL REGULATORS” (IMMUNE DISEASE INSTITUTE, INC., priority 2009, published 2012).

Tested on: STIM1−/− T cells
Experiment: Single-cell [Ca2+]i measurement in STIM1−/− T cells expressing STIM1 fragments
Type: cell-based, murine
Settings: for constitutive Ca^2+ influx: retroviral expression, Fura-2
Excerpt: To determine the competence of STIM 1 fragments to activate ORAI1 in mammalian cells, Myc-tagged STIM 1^CT and its truncated variants were introduced by retroviral expression into STIM1−/− T cells, and their ability to elevate resting Ca^2+ permeability was examined in cells loaded with Fura-2. As in human Jurkat T cells (Huang, G. N., et al., (2006); supra), expression of the soluble cytoplasmic portion of STIM 1 activated Ca^2+ influx into STIM1−/− murine T cells (FIG. 11). Elevated Ca^2+ permeability was evident in a marked increase in cytoplasmic [Ca^2+] on changing to medium containing 2 mM Ca^2+ after brief exposure to nominally Ca^2+-free medium. […] Retroviral vector alone conferred no constitutive influx above the level in control cells, as previously shown (Oh-hora, M., et al., (2008), supra).
Retroviral expression plasmids encoding mouse STIM 1 and its cytoplasmic fragments (residues 233-685, 233-600, 233-498, or 233-463) were constructed by inserting the corresponding coding sequences between the XhoI and EcoRI sites of the vector pMSCV-CITE-eGFP-PGK-Puro (Clontech), which allows for coexpression of the inserted gene, GFP, and a puromycin resistance gene. GFP expression was used to estimate transducing efficiency.
Primary CD4^+ cells were purified from spleen and lymph nodes of Stim1^f1/f1 CD4-Cre^+ mice using Dynal magnetic beads (Invitrogen) following the manufacturer's instructions. Purified T cells were stimulated with anti-CD3 and anti-CD28, transduced with retroviruses obtained from transfected Phoenix packaging cells, and further expanded in IL-2-containing medium as described (Oh-hora, M., et al., Nat Immunol 9, 432-443 (2008); Ansel, K. M., et al., Nat Immunol 5, 1251-1259 (2004)). The transduction efficiency (>80%) was estimated by evaluating GFP expression using flow cytometry.
Retrovirus-transduced CD4^+ cells isolated from Stim1^f1/f1 CD4-Cre^+ mice were incubated overnight in IL-2 free RPMI medium and loaded with 2 μM Fura-2-acetoxylmethyl ester (Invitrogen) for 45 min at ambient temperature in the dark. T cells were further attached to coverslips precoated with 0.01% poly-L-lysine, mounted to a RC-20 closed-bath flow chamber (Warner Instrument), and bathed in Ringer's solution (155 mM NaCl, 4.5 mM KCl, 2 mM CaCl2, 1 mM MgCl2, 10 mM D-glucose and 5 mM HEPES, pH 7.4). For nominally Ca^2+-free Ringer's solution CaCl2 was replaced with MgCl2. After 5 minutes of equilibration in Ringer's solution, [Ca^2+]i measurement commenced with ˜3 min perfusion of T cells with Ca^2+-free Ringer's solution at ambient temperature, followed by perfusion of Ringer's solution containing 2 mM CaCl2. The cycle was repeated once with final addition of Ringer's solution supplemented with 2 μM LaCl3 to block Ca^2+ flux. Images were acquired using a Zeiss Axiovert S200 epifluorescence microscope and OpenLab imaging analysis software (Improvision). The fluorescence data (F340 nm/F380 nm) were collected every 4 s and analyzed as described (Oh-hora, M., et al., (2008), supra; Feske, S., et al., Nature 441, 179-185 (2006)). In each experiment, for each experimental condition, 50-100 GFP-positive CD4+ T cells were analyzed.

Substance | constitutive Ca^2+ influx | maximum levels of cytoplasmic Ca^2+ (compared with STIM1^CT) | rate of rise of cytoplasmic Ca^2+ (compared with STIM1^CT) | steepest rise of cytoplasmic [Ca^2+] (on changing to medium containing 2 mM Ca^2+) [nM/s]
STIM1 (233-463): truncated mouse STIM1 cytoplasmic fragment, residues 233-463, His-tagged recombinant protein | smaller but very clear constitutive Ca^2+ influx | – | – | –
STIM1 (233-498): truncated mouse STIM1 cytoplasmic fragment, residues 233-498, His-tagged recombinant protein | activated a prominent constitutive Ca^2+ influx | somewhat less than with STIM1^CT | nearly comparable to the rate with STIM 1^CT | –
STIM1^CT: cytoplasmic region of STIM1, mouse residues 233-685, His-tagged recombinant protein expressed in E coli | – | – | – | ~15
